The target in test [1] is T1, Mitogen-activated protein kinase kinase kinase 13 (Homo sapiens) (UniProt O43283).
T1 sequence (whole entry): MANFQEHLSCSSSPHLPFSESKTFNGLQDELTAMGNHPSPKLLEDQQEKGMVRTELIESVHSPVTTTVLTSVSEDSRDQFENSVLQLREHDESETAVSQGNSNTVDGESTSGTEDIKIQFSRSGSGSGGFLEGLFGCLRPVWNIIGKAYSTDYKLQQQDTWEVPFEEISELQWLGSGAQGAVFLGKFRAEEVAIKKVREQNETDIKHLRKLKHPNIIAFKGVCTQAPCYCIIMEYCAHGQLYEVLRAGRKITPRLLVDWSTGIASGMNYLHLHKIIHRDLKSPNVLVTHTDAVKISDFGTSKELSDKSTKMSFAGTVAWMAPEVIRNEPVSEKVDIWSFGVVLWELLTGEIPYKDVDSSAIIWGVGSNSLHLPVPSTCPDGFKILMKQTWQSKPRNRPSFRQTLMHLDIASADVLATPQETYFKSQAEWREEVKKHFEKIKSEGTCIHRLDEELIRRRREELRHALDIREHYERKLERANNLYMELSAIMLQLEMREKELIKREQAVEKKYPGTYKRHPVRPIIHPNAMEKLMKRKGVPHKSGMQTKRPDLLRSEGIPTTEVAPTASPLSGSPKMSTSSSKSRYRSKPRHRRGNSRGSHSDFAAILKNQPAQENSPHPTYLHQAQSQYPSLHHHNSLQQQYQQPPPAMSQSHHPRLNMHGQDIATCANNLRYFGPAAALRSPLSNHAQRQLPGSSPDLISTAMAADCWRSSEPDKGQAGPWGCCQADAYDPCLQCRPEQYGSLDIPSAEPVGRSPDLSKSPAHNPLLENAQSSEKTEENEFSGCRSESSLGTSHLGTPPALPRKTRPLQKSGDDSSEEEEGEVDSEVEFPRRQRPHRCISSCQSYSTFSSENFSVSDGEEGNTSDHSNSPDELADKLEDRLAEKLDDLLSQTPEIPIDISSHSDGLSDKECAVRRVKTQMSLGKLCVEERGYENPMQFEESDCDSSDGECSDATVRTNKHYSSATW
Nature of the test: Selectivity interaction (Ambit KINOMEscan and KiNATiv profiling in Jurkat cells) EUB0000090b MAP3K13. The format is cell-based. Conditions: at 1 µM.

Test [2] addresses Serine/threonine-protein kinase VRK2 (Homo sapiens) (UniProt Q86Y07). Briefly: Selectivity interaction (KinomeScan (DiscoverX)) EUB0000607a VRK2. Particulars: at 10 µM.
Test [3] deals with Death-associated protein kinase 1 (Homo sapiens, UniProt P53355). Briefly: Selectivity interaction (KinomeScan (DiscoverX)) EUB0000666a DAPK1. Conditions: at 10 µM.
Test [4] concerns the target Protein arginine N-methyltransferase 1 (Homo sapiens, UniProt Q99873). Conditions: at 10 µM.
In test [5] the target is Calcium/calmodulin-dependent protein kinase type II subunit delta (Homo sapiens) (UniProt Q13557). Nature of the test: Selectivity interaction (KinomeScan (DiscoverX)) EUB0000655a CAMK2D. Conditions: at 10 µM.
Test [6] concerns the target T2, Serine/threonine-protein kinase Nek11 (Homo sapiens) (UniProt Q8NG66).
T2 sequence (whole entry): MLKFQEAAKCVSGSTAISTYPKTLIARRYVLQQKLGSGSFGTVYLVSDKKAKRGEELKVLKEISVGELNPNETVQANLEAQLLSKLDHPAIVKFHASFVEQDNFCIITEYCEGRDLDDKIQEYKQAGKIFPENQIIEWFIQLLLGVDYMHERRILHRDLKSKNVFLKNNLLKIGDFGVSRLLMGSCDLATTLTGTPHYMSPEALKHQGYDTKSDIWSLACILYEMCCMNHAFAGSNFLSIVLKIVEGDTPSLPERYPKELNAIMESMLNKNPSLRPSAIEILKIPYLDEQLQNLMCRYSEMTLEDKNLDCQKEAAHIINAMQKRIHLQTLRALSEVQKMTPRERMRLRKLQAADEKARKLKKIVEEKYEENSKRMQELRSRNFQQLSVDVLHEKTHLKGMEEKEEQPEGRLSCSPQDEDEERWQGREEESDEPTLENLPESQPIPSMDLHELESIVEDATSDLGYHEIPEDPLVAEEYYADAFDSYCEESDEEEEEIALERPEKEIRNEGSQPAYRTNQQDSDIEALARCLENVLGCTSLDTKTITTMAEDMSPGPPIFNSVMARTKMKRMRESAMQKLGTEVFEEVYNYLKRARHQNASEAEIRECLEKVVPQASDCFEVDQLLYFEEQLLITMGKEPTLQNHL
Nature of the test: Selectivity interaction (KinomeScan (DiscoverX)) EUB0000655a NEK11. Particulars: at 10 µM.

Test [7] concerns the target Vascular endothelial growth factor receptor 1 (Homo sapiens) (UniProt P17948). Briefly: Selectivity interaction (KinomeScan (DiscoverX)) EUB0001079a FLT1. Conditions: at 1 µM.
The target of test [8] is Mitogen-activated protein kinase 6 (Homo sapiens) (UniProt Q16659). Nature of the test: Selectivity interaction (KinomeScan (DiscoverX)) EUB0001619a MAPK6. Particulars: at 1 µM.
Test [9] addresses 5'-AMP-activated protein kinase catalytic subunit alpha-1 (Homo sapiens, UniProt Q13131). Briefly: Selectivity interaction (KinomeScan (DiscoverX)) EUB0001619a PRKAA1. Conditions: at 1 µM.
The target in test [10] is Proto-oncogene tyrosine-protein kinase Src (Homo sapiens, UniProt P12931). Nature of the test: Selectivity interaction (Kinase panel (literature)) EUB0001199aCl SRC. Conditions: at 1 µM.
Test [11] concerns the target Homeodomain-interacting protein kinase 2 (Homo sapiens, UniProt Q9H2X6). Briefly: Selectivity interaction (Kinase panel (Invitrogen)) EUB0000639a HIPK2. Conditions: at 200 nM.
Test [12] has as its target Platelet-derived growth factor receptor alpha (Homo sapiens, UniProt P16234). Nature of the test: Selectivity interaction (Kinase panel (Enzyme activity assay)) EUB0000612a PDGFRA.
In test [13] the target is Serine/threonine-protein kinase/endoribonuclease IRE1 (Homo sapiens) (UniProt O75460). Briefly: Selectivity interaction (KinomeScan (DiscoverX)) EUB0000695a ERN1. Particulars: at 100 nM.
Test [14] has as its target Mitogen-activated protein kinase 10 (Homo sapiens, UniProt P53779). Briefly: Selectivity interaction (ProQinase) EUB0000171b MAPK10.
Test [15] concerns the target Histamine H2 receptor (Homo sapiens) (UniProt P25021). Briefly: Selectivity interaction (Eurofins CEREP Diversity Profile (receptors and ion channels)) EUB0000279b HRH2. Particulars: at 10 µM.
In test [16] the target is T3, Serine/threonine-protein kinase PAK 4 (Homo sapiens, UniProt O96013). Nature of the test: Selectivity interaction (KinomeScan (DiscoverX)) EUB0000092b PAK4. Particulars: at 10 µM.
For test [17], the target named is Serine/threonine-protein kinase pim-2 (Homo sapiens, UniProt Q9P1W9). Nature of the test: Selectivity interaction (KinomeScan (DiscoverX)) EUB0000045b PIM2.
Test [18] has as its target Myosin light chain kinase 2, skeletal/cardiac muscle (Homo sapiens) (UniProt Q9H1R3). Nature of the test: Selectivity interaction (KinomeScan (DiscoverX)) EUB0000618a MYLK2. Conditions: at 10 µM.
Test [19] deals with T3, Serine/threonine-protein kinase PAK 4. Briefly: Selectivity interaction (KinomeScan (DiscoverX)) EUB0000618a PAK4. Conditions: at 10 µM.

A value given as a limit tells only on which side of the number the result lay.

Serine/threonine-protein kinase pim-2, sequence (Q9P1W9 whole entry, looked up): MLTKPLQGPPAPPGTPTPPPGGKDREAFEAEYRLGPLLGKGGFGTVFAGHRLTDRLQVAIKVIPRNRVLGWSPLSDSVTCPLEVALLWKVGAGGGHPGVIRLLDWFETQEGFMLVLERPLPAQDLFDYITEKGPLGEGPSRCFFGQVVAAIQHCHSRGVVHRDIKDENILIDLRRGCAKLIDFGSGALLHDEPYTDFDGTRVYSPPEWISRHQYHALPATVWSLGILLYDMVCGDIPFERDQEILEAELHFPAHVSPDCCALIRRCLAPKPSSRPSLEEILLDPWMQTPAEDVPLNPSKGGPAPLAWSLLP
T3 sequence (O96013 whole entry, looked up): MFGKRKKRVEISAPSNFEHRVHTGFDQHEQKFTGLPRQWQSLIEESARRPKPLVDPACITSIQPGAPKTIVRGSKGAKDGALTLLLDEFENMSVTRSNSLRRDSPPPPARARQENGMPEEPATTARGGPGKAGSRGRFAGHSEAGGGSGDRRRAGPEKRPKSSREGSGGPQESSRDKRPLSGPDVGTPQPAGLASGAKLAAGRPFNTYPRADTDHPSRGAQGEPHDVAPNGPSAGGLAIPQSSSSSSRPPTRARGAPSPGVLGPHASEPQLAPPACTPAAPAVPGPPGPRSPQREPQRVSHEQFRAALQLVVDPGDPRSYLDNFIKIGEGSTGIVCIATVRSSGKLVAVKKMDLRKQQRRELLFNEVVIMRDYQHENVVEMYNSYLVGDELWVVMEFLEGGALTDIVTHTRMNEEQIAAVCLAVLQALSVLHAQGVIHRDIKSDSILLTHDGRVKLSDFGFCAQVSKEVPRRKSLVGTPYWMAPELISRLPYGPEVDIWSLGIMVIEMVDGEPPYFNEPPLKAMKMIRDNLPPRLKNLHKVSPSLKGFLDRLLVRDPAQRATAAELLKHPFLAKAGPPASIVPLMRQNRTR
Mitogen-activated protein kinase 10, sequence (P53779 whole entry): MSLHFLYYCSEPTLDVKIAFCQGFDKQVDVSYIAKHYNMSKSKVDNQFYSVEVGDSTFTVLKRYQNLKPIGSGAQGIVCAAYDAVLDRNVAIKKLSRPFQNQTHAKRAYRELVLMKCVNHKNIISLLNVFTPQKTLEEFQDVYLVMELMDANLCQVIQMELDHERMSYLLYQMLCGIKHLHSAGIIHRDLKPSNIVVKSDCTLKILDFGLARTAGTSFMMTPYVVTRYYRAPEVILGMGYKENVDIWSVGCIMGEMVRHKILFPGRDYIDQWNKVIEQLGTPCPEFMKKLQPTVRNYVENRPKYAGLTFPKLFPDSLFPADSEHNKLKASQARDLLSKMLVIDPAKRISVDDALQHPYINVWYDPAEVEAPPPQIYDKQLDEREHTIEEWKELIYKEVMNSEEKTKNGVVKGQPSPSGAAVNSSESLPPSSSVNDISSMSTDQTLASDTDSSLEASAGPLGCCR
Protein arginine N-methyltransferase 1, sequence (Q99873 whole entry, looked up): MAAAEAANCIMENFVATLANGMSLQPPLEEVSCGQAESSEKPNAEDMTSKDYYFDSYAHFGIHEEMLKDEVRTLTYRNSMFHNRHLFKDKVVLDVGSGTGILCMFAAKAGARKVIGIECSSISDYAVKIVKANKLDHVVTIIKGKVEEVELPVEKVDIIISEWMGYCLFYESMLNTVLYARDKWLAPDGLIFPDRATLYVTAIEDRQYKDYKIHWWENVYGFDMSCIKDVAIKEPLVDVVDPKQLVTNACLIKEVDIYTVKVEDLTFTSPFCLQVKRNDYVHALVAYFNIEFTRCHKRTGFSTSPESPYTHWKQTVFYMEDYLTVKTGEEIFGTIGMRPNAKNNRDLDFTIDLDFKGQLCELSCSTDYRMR
Serine/threonine-protein kinase VRK2 (Homo sapiens), sequence (Q86Y07 whole entry): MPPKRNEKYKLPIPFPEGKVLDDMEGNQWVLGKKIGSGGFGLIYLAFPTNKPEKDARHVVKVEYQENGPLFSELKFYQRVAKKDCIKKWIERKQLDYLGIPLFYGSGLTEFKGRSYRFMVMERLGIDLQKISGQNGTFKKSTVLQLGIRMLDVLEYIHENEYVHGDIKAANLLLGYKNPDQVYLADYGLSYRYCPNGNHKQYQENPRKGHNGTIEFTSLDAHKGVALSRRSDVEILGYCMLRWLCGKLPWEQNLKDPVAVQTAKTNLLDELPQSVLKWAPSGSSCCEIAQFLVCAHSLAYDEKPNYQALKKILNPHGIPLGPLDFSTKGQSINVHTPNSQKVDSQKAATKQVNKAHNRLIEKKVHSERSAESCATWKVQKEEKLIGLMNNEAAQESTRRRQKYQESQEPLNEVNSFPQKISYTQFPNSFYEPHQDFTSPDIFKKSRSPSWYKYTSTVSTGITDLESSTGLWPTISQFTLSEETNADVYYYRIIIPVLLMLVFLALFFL
Serine/threonine-protein kinase/endoribonuclease IRE1 (Homo sapiens), sequence (O75460 19-977 limits assumed): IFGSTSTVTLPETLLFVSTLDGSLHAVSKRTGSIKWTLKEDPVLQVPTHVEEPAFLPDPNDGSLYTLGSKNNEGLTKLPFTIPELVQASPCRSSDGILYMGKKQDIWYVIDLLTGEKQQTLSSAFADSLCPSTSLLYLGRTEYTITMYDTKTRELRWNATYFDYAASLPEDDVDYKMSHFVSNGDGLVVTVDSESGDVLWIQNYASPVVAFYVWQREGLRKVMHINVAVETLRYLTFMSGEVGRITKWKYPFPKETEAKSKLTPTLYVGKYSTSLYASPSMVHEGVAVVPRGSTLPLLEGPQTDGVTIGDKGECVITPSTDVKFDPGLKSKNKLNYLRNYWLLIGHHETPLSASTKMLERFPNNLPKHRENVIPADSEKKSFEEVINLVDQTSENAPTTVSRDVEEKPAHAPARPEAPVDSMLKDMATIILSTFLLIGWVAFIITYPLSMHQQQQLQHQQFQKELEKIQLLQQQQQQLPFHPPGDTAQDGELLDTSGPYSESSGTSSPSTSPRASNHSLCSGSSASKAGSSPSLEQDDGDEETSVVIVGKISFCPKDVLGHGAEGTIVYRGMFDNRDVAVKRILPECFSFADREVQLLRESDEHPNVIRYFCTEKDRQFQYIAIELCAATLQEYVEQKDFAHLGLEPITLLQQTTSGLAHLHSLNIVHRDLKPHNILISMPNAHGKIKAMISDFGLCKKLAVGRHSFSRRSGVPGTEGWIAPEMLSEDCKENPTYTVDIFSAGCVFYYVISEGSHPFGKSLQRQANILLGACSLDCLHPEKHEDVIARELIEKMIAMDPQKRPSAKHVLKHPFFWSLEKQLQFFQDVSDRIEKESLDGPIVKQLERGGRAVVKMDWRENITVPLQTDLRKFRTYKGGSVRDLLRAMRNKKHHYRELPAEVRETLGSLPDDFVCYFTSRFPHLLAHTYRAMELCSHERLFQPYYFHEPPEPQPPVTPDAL
Platelet-derived growth factor receptor alpha, sequence (P16234 whole entry): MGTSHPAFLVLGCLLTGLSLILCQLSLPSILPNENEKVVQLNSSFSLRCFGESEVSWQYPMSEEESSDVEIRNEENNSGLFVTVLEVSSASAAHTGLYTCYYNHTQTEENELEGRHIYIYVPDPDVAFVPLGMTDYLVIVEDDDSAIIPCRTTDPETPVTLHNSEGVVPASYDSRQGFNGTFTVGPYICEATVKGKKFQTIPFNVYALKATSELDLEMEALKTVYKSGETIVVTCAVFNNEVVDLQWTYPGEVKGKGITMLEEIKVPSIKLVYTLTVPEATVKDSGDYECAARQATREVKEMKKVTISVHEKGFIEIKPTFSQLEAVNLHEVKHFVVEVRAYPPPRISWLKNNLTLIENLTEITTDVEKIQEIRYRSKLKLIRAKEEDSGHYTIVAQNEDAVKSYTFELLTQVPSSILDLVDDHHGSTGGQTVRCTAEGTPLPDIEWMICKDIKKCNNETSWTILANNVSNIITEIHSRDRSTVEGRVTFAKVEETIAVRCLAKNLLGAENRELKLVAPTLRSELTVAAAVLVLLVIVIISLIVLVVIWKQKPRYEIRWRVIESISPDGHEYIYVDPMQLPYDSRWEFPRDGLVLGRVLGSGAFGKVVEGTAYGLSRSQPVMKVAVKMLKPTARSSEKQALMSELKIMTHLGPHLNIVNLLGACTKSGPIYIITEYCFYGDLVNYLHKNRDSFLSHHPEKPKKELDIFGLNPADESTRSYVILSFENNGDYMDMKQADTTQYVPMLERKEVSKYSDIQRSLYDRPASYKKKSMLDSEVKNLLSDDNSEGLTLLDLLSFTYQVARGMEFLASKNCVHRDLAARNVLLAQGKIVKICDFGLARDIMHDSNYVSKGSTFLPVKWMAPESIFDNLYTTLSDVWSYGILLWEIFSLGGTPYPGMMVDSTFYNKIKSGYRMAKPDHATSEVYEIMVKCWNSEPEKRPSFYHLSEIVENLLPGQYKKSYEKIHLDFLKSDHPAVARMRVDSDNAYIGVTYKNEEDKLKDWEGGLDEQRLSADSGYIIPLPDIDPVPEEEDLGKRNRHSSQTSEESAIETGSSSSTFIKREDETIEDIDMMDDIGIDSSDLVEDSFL
Myosin light chain kinase 2, skeletal/cardiac muscle (Homo sapiens), sequence (Q9H1R3 whole entry): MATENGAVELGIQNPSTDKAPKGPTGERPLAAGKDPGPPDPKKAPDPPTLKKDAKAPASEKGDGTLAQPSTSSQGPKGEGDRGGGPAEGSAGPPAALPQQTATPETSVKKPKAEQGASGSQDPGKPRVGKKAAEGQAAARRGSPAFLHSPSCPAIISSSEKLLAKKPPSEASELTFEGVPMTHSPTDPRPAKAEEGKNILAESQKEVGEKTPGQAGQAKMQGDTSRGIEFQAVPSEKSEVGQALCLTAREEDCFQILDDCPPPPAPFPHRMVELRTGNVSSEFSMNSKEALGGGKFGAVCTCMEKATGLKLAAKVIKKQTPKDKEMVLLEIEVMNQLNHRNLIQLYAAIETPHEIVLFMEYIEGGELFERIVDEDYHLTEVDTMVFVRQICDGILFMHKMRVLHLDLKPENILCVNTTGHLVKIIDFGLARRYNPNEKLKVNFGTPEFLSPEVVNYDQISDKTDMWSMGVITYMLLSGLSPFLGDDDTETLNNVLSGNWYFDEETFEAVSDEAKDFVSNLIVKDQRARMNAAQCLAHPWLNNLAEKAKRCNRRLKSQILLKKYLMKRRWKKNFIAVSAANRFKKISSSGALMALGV

Take `CN(C)C/C=C/C(=O)Nc1ccc(C(=O)N2CCCC(Nc3ncc(Cl)c(-c4c[nH]c5ccccc45)n3)C2)cc1` (stereo unspecified): the % of control in [1] is 95%. In [2], `CNC(=O)Nc1ccc(-c2nc(N3CC4CCC(C3)O4)c3cnn(C4CCC5(CC4)OCCO5)c3n2)cc1` had a % of control of 100%. `O=C(NOC[C@H](O)CO)c1ccc(F)c(F)c1Nc1ccc(I)cc1F`: the % of control in test [3] was found to be 100%.

Consider `CNCCN1CCC(c2cc(CN(C)C(=O)c3cccc(Oc4ccccc4)c3)ccn2)CC1`, for which the % activity in test [4] was above 90%. On to `CN(C)CCOc1ccc(-c2nc(-c3ccncc3)c(-c3ccc4c(c3)CC/C4=N\O)[nH]2)cc1`, for which the % of control in [5] was determined as 100%; in test [6], 81%. In the case of `Nc1cnc(N2CCc3cc(S(=O)(=O)Nc4c(F)cc(Cl)cc4F)cc(N4CCCC4=O)c32)nc1` [TP-020n], the % of control in [7] was determined as 93%. For the compound `N#Cc1cccc(-c2c[nH]c3ncnc(N4CCOCC4)c23)c1`, the % of control is 100% in test [8] and 71% in [9].

For the compound `CN1Cc2nccc(-c3cn(C)nc3-c3ccc(F)cc3)c2C1=O`, in test [10], the % of inhibition was 6%.

In [11], `CC[C@@H]1[C@H](F)C(=O)N[C@@H]1COc1nccc2cc(C(N)=O)c(OC)cc12` [ZIMLOVISERTIB] showed a % of inhibition of 4.6%. As usually defined, the IC50 is the concentration needed to halve the response being measured. Lower therefore signals greater potency. Regarding `CCc1cccc(CC)c1NC(=O)c1nn(C)c2c1CCc1cnc(Nc3ccc(C(=O)NC4CCN(C)CC4)cc3OC(F)(F)F)nc1-2`, the IC50 in [12] is above 10 µM.

As to `Cc1cc(F)c(C(=O)Nc2cccc(-c3nncn3C(C)C)n2)cc1-n1cnc(C2CC2)c1`, the % of control in test [13] worked out at 88%. Regarding `C=CC(=O)Nc1cccc(C(=O)Nc2ccc(Nc3cc(-c4[nH]c(SC)nc4C)ccn3)cc2)c1`, the % of control was 3% in test [14] (at 1 µM) and 0% in test [14] (at 5 µM). As to `CC(=O)c1cc(-c2ccccc2OCC2CC2)c2ncccn12`, the % of control in [15] came to 115%. The compound `CCC(=O)N1CCN(c2ccc(-n3c(=O)ccc4cnc5ccc(-c6cnc7ccccc7c6)cc5c43)cc2C(F)(F)F)CC1` gave a % of control in test [16] of 100%. `C=CC(=O)Nc1cc(-n2c(=O)ccc3cnc4ccc(-c5ccc(NS(C)(=O)=O)cc5)cc4c32)ccc1C`: the % of control in [17] (at 1 µM) came out at 66%; in [17] (at 10 µM), 100%.

For the compound `O[C@H]1CC[C@H](Nc2ncc3nc(Nc4c(F)cc(F)cc4F)n([C@H]4CCOC4)c3n2)CC1`, the % of control in [18] and in test [19] was 100% in each case.
